Literature values, collected in patent US20130171256A1 (CIMA LABS Inc., priority 2010, published 2013).

How the values were obtained:
Details in all cases: preclinical studies
[1] = test system: neuronal norepinephrine reuptake
dopamine reuptake = test system: dopamine reuptake
[2] = test system: neuronal serotonin reuptake

## COc1ccc(C(CN(C)C)C2(O)CCCCC2)cc1 (centres unmarked) [Venlafaxine]
[1]
  inhibition of neuronal norepinephrine reuptake: potent inhibitors
Dopamine reuptake
  inhibition of dopamine reuptake: weak inhibitors

## CN(C)CC(c1ccc(O)cc1)C1(O)CCCCC1 (centres unmarked) [O-desmethylvenlafaxine]
[1]
  inhibition of neuronal norepinephrine reuptake: potent inhibitors
Dopamine reuptake
  inhibition of dopamine reuptake: weak inhibitors
[2]
  inhibition of neuronal serotonin reuptake: potent inhibitors
